Measured values published in PubChem BioAssay (NCI).
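Briefly, cells in 96-well plates were exposed to five compound concentrations for 48 h, and endpoints were estimated by linear interpolation. At the GI50, growth is halved. TGI denotes the concentration required for complete inhibition of growth.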

What was measured:
Assay in all cases: inhibition of tumour cell growth, NCI panel, 48 h
NCI-H522 lung = test system: NCI-H522 lung
NCI/ADR-RES ovarian = test system: NCI/ADR-RES ovarian
RPMI-8226 leukemia = test system: RPMI-8226 leukemia
SK-MEL-5 melanoma = test system: SK-MEL-5 melanoma
MDA-MB-231 breast = test system: MDA-MB-231 breast
NCI-H226 lung = test system: NCI-H226 lung
CCRF-CEM leukemia = test system: CCRF-CEM leukemia
MCF7 breast = test system: MCF7 breast
KM12 colon = test system: KM12 colon
EKVX NSCLC = test system: EKVX NSCLC
UACC-257 melanoma = test system: UACC-257 melanoma
A498 renal = test system: A498 renal
OVCAR-8 ovarian = test system: OVCAR-8 ovarian
HL-60(TB) leukemia = test system: HL-60(TB) leukemia
DU-145 prostate = test system: DU-145 prostate
CAKI-1 renal = test system: CAKI-1 renal
SNB-19 CNS = test system: SNB-19 CNS
T-47D breast = test system: T-47D breast
PC-3 prostate = test system: PC-3 prostate
UACC-62 melanoma = test system: UACC-62 melanoma
HCT-15 colon = test system: HCT-15 colon
M14 melanoma = test system: M14 melanoma
U251 CNS = test system: U251 CNS
NCI-H460 lung = test system: NCI-H460 lung
NCI-H23 lung = test system: NCI-H23 lung
K-562 leukemia = test system: K-562 leukemia
HT29 colon = test system: HT29 colon
HS 578T breast = test system: HS 578T breast
ACHN renal = test system: ACHN renal
COLO 205 colon = test system: COLO 205 colon
SW-620 colon = test system: SW-620 colon
BT-549 breast = test system: BT-549 breast
LOX IMVI melanoma = test system: LOX IMVI melanoma
MDA-MB-435 = test system: MDA-MB-435
SK-OV-3 ovarian = test system: SK-OV-3 ovarian
SF-295 CNS = test system: SF-295 CNS
TK-10 renal = test system: TK-10 renal
HOP-92 NSCLC = test system: HOP-92 NSCLC
SF-268 CNS = test system: SF-268 CNS
UO-31 renal = test system: UO-31 renal
SNB-75 CNS = test system: SNB-75 CNS
OVCAR-3 ovarian = test system: OVCAR-3 ovarian
HCT-116 colon = test system: HCT-116 colon
MOLT-4 leukemia = test system: MOLT-4 leukemia
A549 NSCLC = test system: A549 NSCLC
SK-MEL-28 melanoma = test system: SK-MEL-28 melanoma
SK-MEL-2 melanoma = test system: SK-MEL-2 melanoma
OVCAR-4 ovarian = test system: OVCAR-4 ovarian
IGROV1 ovarian = test system: IGROV1 ovarian
786-0 renal = test system: 786-0 renal
SF-539 CNS = test system: SF-539 CNS
OVCAR-5 ovarian = test system: OVCAR-5 ovarian
SN12C renal = test system: SN12C renal
RXF 393 renal = test system: RXF 393 renal
MALME-3M melanoma = test system: MALME-3M melanoma
HCC-2998 colon = test system: HCC-2998 colon
HOP-62 NSCLC = test system: HOP-62 NSCLC

C=C(C)[C@@H]1CC[C@]2(COC(C)=O)CC[C@]3(C)[C@H](CC[C@@H]4[C@@]5(C)CCCN(C(C)=O)C(C)(C)[C@@H]5CC[C@]43C)[C@@H]12
GI50 (NCI-H522 lung): 1.65 µM
TGI (NCI-H522 lung): 3.24 µM
GI50 (NCI/ADR-RES ovarian): 1.89 µM
TGI (NCI/ADR-RES ovarian): 3.68 µM
GI50 (RPMI-8226 leukemia): 1.98 µM
TGI (RPMI-8226 leukemia): 4.19 µM
GI50 (SK-MEL-5 melanoma): 1.78 µM
TGI (SK-MEL-5 melanoma): 3.19 µM
GI50 (MDA-MB-231 breast): 1.75 µM
TGI (MDA-MB-231 breast): 3.46 µM
GI50 (NCI-H226 lung): 2.2 µM
TGI (NCI-H226 lung): 5.04 µM
GI50 (CCRF-CEM leukemia): 1.87 µM
TGI (CCRF-CEM leukemia): 4.95 µM
GI50 (MCF7 breast): 1.45 µM
TGI (MCF7 breast): 3.13 µM
GI50 (KM12 colon): 1.83 µM
TGI (KM12 colon): 3.42 µM
GI50 (EKVX NSCLC): 1.58 µM
TGI (EKVX NSCLC): 3.2 µM
GI50 (UACC-257 melanoma): 1.74 µM
TGI (UACC-257 melanoma): 3.31 µM
GI50 (A498 renal): 9.84 µM
TGI (A498 renal): 23.4 µM
GI50 (OVCAR-8 ovarian): 1.84 µM
TGI (OVCAR-8 ovarian): 3.42 µM
GI50 (HL-60(TB) leukemia): 1.9 µM
TGI (HL-60(TB) leukemia): 3.82 µM
GI50 (DU-145 prostate): 1.75 µM
TGI (DU-145 prostate): 3.29 µM
GI50 (CAKI-1 renal): 1.58 µM
TGI (CAKI-1 renal): 2.96 µM
GI50 (SNB-19 CNS): 1.81 µM
TGI (SNB-19 CNS): 3.27 µM
GI50 (T-47D breast): 1.63 µM
TGI (T-47D breast): 3.22 µM
GI50 (PC-3 prostate): 1.58 µM
TGI (PC-3 prostate): 3.23 µM
GI50 (UACC-62 melanoma): 1.79 µM
TGI (UACC-62 melanoma): 3.23 µM
GI50 (HCT-15 colon): 1.65 µM
TGI (HCT-15 colon): 3.05 µM
GI50 (M14 melanoma): 1.9 µM
TGI (M14 melanoma): 3.92 µM
GI50 (U251 CNS): 1.69 µM
TGI (U251 CNS): 3.15 µM
GI50 (NCI-H460 lung): 1.9 µM
TGI (NCI-H460 lung): 3.72 µM
GI50 (NCI-H23 lung): 1.89 µM
TGI (NCI-H23 lung): 3.53 µM
GI50 (K-562 leukemia): 1.58 µM
TGI (K-562 leukemia): 4.14 µM
GI50 (HT29 colon): 1.52 µM
TGI (HT29 colon): 2.95 µM
GI50 (HS 578T breast): 1.85 µM
TGI (HS 578T breast): 4.05 µM
GI50 (ACHN renal): 1.7 µM
TGI (ACHN renal): 3.07 µM
GI50 (COLO 205 colon): 1.19 µM
TGI (COLO 205 colon): 2.55 µM
GI50 (SW-620 colon): 1.75 µM
TGI (SW-620 colon): 3.47 µM
GI50 (BT-549 breast): 2.41 µM
TGI (BT-549 breast): 6.41 µM
GI50 (LOX IMVI melanoma): 1.45 µM
TGI (LOX IMVI melanoma): 2.76 µM
GI50 (MDA-MB-435): 1.48 µM
TGI (MDA-MB-435): 2.85 µM
GI50 (SK-OV-3 ovarian): 1.97 µM
TGI (SK-OV-3 ovarian): 4.19 µM
GI50 (SF-295 CNS): 1.69 µM
TGI (SF-295 CNS): 3.12 µM
GI50 (TK-10 renal): 1.71 µM
TGI (TK-10 renal): 3.18 µM
GI50 (HOP-92 NSCLC): 1.31 µM
TGI (HOP-92 NSCLC): 2.7 µM
GI50 (SF-268 CNS): 3.37 µM
TGI (SF-268 CNS): 13.5 µM
GI50 (UO-31 renal): 1.38 µM
TGI (UO-31 renal): 2.68 µM
GI50 (SNB-75 CNS): 1.48 µM
TGI (SNB-75 CNS): 2.88 µM
GI50 (OVCAR-3 ovarian): 1.93 µM
TGI (OVCAR-3 ovarian): 3.75 µM
GI50 (HCT-116 colon): 1.77 µM
TGI (HCT-116 colon): 3.31 µM
GI50 (MOLT-4 leukemia): 1.84 µM
TGI (MOLT-4 leukemia): 4.2 µM
GI50 (A549 NSCLC): 1.69 µM
TGI (A549 NSCLC): 3.23 µM
GI50 (SK-MEL-28 melanoma): 1.82 µM
TGI (SK-MEL-28 melanoma): 3.33 µM
GI50 (SK-MEL-2 melanoma): 1.88 µM
TGI (SK-MEL-2 melanoma): 3.54 µM
GI50 (OVCAR-4 ovarian): 1.57 µM
TGI (OVCAR-4 ovarian): 3.13 µM
GI50 (IGROV1 ovarian): 1.81 µM
TGI (IGROV1 ovarian): 3.37 µM
GI50 (786-0 renal): 1.75 µM
TGI (786-0 renal): 3.22 µM
GI50 (SF-539 CNS): 1.67 µM
TGI (SF-539 CNS): 3.06 µM
GI50 (OVCAR-5 ovarian): 1.66 µM
TGI (OVCAR-5 ovarian): 3.19 µM
GI50 (SN12C renal): 1.75 µM
TGI (SN12C renal): 3.33 µM
GI50 (RXF 393 renal): 1.59 µM
TGI (RXF 393 renal): 3.02 µM
GI50 (MALME-3M melanoma): 1.57 µM
TGI (MALME-3M melanoma): 3.05 µM
GI50 (HCC-2998 colon): 1.67 µM
TGI (HCC-2998 colon): 3.16 µM
GI50 (HOP-62 NSCLC): 1.69 µM
TGI (HOP-62 NSCLC): 3.16 µM
